Experimental data: ChEMBL document CHEMBL1201862, “PubChem BioAssay data set” (2004)
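Five compound concentrations were applied to cells in 96-well plates for 48 hours; endpoints were derived by simple linear interpolation of the resulting dose-response curve. Abbreviation: GI50, concentration required for 50% inhibition of growth.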 The source made the active and inactive calls. No stated cut-off is given here; in the data, active = GI50 up to about 1.1 µM and inactive = higher.

What was measured:
Experiment in all cases: NCI-60 cell line screen, 48 h
EKVX = system: EKVX
786-0 = system: 786-0
SW-620 = system: SW-620
SK-MEL-2 = system: SK-MEL-2
K562 = system: K562
Malme-3M = system: Malme-3M
HOP-92 = system: HOP-92
UO-31 = system: UO-31
HL-60 = system: HL-60
CAKI-1 = system: CAKI-1
SK-MEL-28 = system: SK-MEL-28
RXF 393 = system: RXF 393
XF498 = system: XF498
KM-20L2 = system: KM-20L2
SNB-78 = system: SNB-78
RPMI-8226 = system: RPMI-8226
HCT-116 = system: HCT-116
OVCAR-5 = system: OVCAR-5
IGROV-1 = system: IGROV-1
M14 = system: M14
SK-OV-3 = system: SK-OV-3
OVCAR-4 = system: OVCAR-4
SF-539 = system: SF-539
RXF 631 = system: RXF 631
NCI-H522 = system: NCI-H522
SF-295 = system: SF-295
TK-10 = system: TK-10
ACHN = system: ACHN
NCI-H460 = system: NCI-H460
HOP-62 = system: HOP-62
A498 = system: A498
HOP-18 = system: HOP-18
SNB-75 = system: SNB-75
A549 = system: A549
MOLT-4 = system: MOLT-4
CCRF-CEM = system: CCRF-CEM
LXFL 529 = system: LXFL 529
SN12C = system: SN12C
DMS-273 = system: DMS-273
SNB-19 = system: SNB-19
HT-29 = system: HT-29
DLD-1 = system: DLD-1
DMS-114 = system: DMS-114
UACC-257 = system: UACC-257
HCT-15 = system: HCT-15
NCI-H23 = system: NCI-H23
SR = system: SR
UACC-62 = system: UACC-62
SK-MEL-5 = system: SK-MEL-5
U-251 = system: U-251
OVCAR-8 = system: OVCAR-8
SF-268 = system: SF-268
NCI-H226 = system: NCI-H226
KM12 = system: KM12
HCC 2998 = system: HCC 2998
M19-MEL = system: M19-MEL
COLO 205 = system: COLO 205
OVCAR-3 = system: OVCAR-3

CCOC(=O)/N=c1/nc(N(C)C)ss1 was tested, and the GI50 (EKVX) was > 100 µM (inactive), the GI50 (786-0) was > 100 µM (inactive) and the GI50 (SW-620) was > 100 µM (inactive). The GI50 (SK-MEL-2) was > 100 µM (inactive), the GI50 (K562) was > 100 µM (inactive) and the GI50 (Malme-3M) was > 100 µM (inactive). The GI50 (HOP-92) was > 100 µM (inactive), the GI50 (UO-31) was > 100 µM (inactive) and the GI50 (HL-60) was > 100 µM (inactive). The GI50 (CAKI-1) was > 100 µM (inactive), the GI50 (SK-MEL-28) was > 100 µM (inactive) and the GI50 (RXF 393) was > 100 µM (inactive). For the same compound, the GI50 (XF498) was > 100 µM (inactive), the GI50 (KM-20L2) was > 100 µM (inactive) and the GI50 (SNB-78) was > 100 µM (inactive). For the same compound, the GI50 (RPMI-8226) was > 100 µM (inactive), the GI50 (HCT-116) was > 100 µM (inactive) and the GI50 (OVCAR-5) was > 100 µM (inactive). For the same compound, the GI50 (IGROV-1) was > 100 µM (inactive), the GI50 (M14) was > 100 µM (inactive) and the GI50 (SK-OV-3) was > 100 µM (inactive). The GI50 (OVCAR-4) was > 100 µM (inactive), the GI50 (SF-539) was > 100 µM (inactive) and the GI50 (RXF 631) was > 100 µM (inactive). For the same compound, the GI50 (NCI-H522) was > 100 µM (inactive), the GI50 (SF-295) was > 100 µM (inactive) and the GI50 (TK-10) was > 100 µM (inactive). For the same compound, the GI50 (ACHN) was > 100 µM (inactive), the GI50 (NCI-H460) was > 100 µM (inactive) and the GI50 (HOP-62) was > 100 µM (inactive). For the same compound, the GI50 (A498) was > 100 µM (inactive), the GI50 (HOP-18) was > 100 µM (inactive) and the GI50 (SNB-75) was > 100 µM (inactive). The GI50 (A549) was > 100 µM (inactive), the GI50 (MOLT-4) was > 100 µM (inactive) and the GI50 (CCRF-CEM) was > 100 µM (inactive). For the same compound, the GI50 (LXFL 529) was > 100 µM (inactive), the GI50 (SN12C) was > 100 µM (inactive) and the GI50 (DMS-273) was > 100 µM (inactive). For the same compound, the GI50 (SNB-19) was > 100 µM (inactive), the GI50 (HT-29) was > 100 µM (inactive) and the GI50 (DLD-1) was > 100 µM (inactive). For the same compound, the GI50 (DMS-114) was > 100 µM (inactive), the GI50 (UACC-257) was > 100 µM (inactive) and the GI50 (HCT-15) was over 100 µM. The GI50 (NCI-H23) was > 100 µM (inactive), the GI50 (SR) was > 100 µM (inactive) and the GI50 (UACC-62) was > 100 µM (inactive). The GI50 (SK-MEL-5) was > 100 µM (inactive), the GI50 (U-251) was > 100 µM (inactive) and the GI50 (OVCAR-8) was > 100 µM (inactive). The GI50 (SF-268) was > 100 µM (inactive), the GI50 (NCI-H226) was 30.3 µM (inactive) and the GI50 (KM12) was > 100 µM (inactive). For the same compound, the GI50 (HCC 2998) was > 100 µM (inactive).
In the case of O=C(O)c1ccc([Se][Se]c2ccc(C(=O)O)cc2)cc1, the GI50 (EKVX) is reported as 23.6 µM (inactive), the GI50 (786-0) is reported as 34 µM (inactive) and the GI50 (SW-620) is reported as 32.4 µM (inactive). The GI50 (SK-MEL-2) was 27.4 µM (inactive), the GI50 (Malme-3M) was 26.1 µM (inactive) and the GI50 (UO-31) was 29.9 µM (inactive). For the same compound, the GI50 (CAKI-1) was 19.4 µM (inactive), the GI50 (SK-MEL-28) was 20.7 µM (inactive) and the GI50 (RXF 393) was 21.2 µM (inactive). For the same compound, the GI50 (XF498) was 31.7 µM (inactive), the GI50 (KM-20L2) was 33 µM (inactive) and the GI50 (SNB-78) was 18.7 µM (inactive). The GI50 (RPMI-8226) was 21.2 µM (inactive), the GI50 (HCT-116) was 18.1 µM (inactive) and the GI50 (OVCAR-5) was 23.5 µM (inactive). The GI50 (IGROV-1) was 30.4 µM (inactive), the GI50 (M14) was 18.5 µM (inactive) and the GI50 (OVCAR-4) was 19.2 µM (inactive). The GI50 (SF-539) was 36.1 µM (inactive), the GI50 (RXF 631) was 19 µM (inactive) and the GI50 (NCI-H522) was 23.6 µM (inactive). The GI50 (SF-295) was 23.6 µM (inactive), the GI50 (TK-10) was 22.7 µM (inactive) and the GI50 (NCI-H460) was 6.65 µM (inactive). The GI50 (HOP-18) was 29.4 µM (inactive), the GI50 (SNB-75) was 33.9 µM (inactive) and the GI50 (A549) was 25.8 µM (inactive). The GI50 (M19-MEL) was 19.5 µM (inactive), the GI50 (LXFL 529) was 23 µM (inactive) and the GI50 (SN12C) was 37.5 µM (inactive). For the same compound, the GI50 (COLO 205) was 32.9 µM (inactive), the GI50 (DMS-273) was 21.9 µM (inactive) and the GI50 (SNB-19) was 34.1 µM (inactive). For the same compound, the GI50 (DLD-1) was 34 µM (inactive), the GI50 (DMS-114) was 20.6 µM (inactive) and the GI50 (HCT-15) was 35.6 µM. For the same compound, the GI50 (NCI-H23) was 19.3 µM (inactive), the GI50 (SR) was > 10 µM (inactive) and the GI50 (UACC-62) was 19.3 µM (inactive). The GI50 (OVCAR-3) was 22.5 µM (inactive), the GI50 (U-251) was 21.1 µM (inactive) and the GI50 (OVCAR-8) was 28.6 µM (inactive). For the same compound, the GI50 (SF-268) was 33.9 µM (inactive), the GI50 (NCI-H226) was 26.8 µM (inactive) and the GI50 (KM12) was 29 µM (inactive). For the same compound, the GI50 (HCC 2998) was 35.9 µM (inactive).
